One test concerns the target T1, h-TGR5 (Homo sapiens, UniProt Q8TDU6).
T1 construct: expressed in transfected cells
T1 sequence (Q8TDU6 1-330): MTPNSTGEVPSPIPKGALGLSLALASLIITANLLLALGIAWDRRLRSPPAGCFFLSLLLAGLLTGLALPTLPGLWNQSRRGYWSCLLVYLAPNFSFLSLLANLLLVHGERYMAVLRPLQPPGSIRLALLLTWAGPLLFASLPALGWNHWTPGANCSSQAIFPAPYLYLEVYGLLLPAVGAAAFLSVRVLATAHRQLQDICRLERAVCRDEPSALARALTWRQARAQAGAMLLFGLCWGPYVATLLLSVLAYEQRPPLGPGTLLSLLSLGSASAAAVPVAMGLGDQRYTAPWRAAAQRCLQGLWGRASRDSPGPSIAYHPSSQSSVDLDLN
The test is described as follows: TGR5 cAMP Assay using Cisbio cAMP Dynamic2 htrf kit (hTGR5CRE-luc HEK 293 cells). The class given is cell-based. Conditions: h-TGR5 cAMP EC50, Table 1; read-out: cAMP (EC50). A digest of the protocol:
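[…], 4000 hTGR5CRE-luc HEK 293 cells per well, with 0.5 mM IBMX and d2-cAMP, were incubated 30 min at room temperature with compounds in 8-point half-log series, in quadruplicate.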

Another test has as its target T2, human TGR5 (h-TGR5) (Homo sapiens, UniProt Q8TDU6).
T2 construct: expressed in transfected cells
T2 sequence (Q8TDU6 1-330): T1 sequence (Q8TDU6 1-330)
The test is described as follows: TGR5/CRE-Luciferiase Assay (HEK 293 hTGR5/CRE-Luc cells). Type of test: cell-based. Conditions: h-TGR5 CRE-Luc EC50, Table 1; read-out: CRE-Luc (EC50). The method in brief:
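HEK293 cells stably carrying hTGR5 and a CRE-luciferase reporter were exposed to serially diluted compounds (diluted in DMEM with 5% DMSO) for 6 h. Cells were then lysed in luciferase buffer, luminescence was read, and EC50 values were derived from dose-response curves.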

With `COc1ccc(C(C)(C)c2cnc(SCc3ccc(F)c(S(N)(=O)=O)c3)n2-c2ccc(F)cc2)cc1OC` [5-({[5-{1-[3,4-bis(methyloxy)phenyl]-1-methylethyl}-1-(4-fluorophenyl)-1H-imidazol-2-yl]thio}methyl)-2-fluorobenzenesulfonamide], the EC50 at h-TGR5 and on human TGR5 (h-TGR5) was less than 100 nM throughout.
With `COc1cc(C(C)(C)c2cnc(SCc3c(F)cc(OCC/C=N/NC(=N)N)cc3Cl)n2-c2ccc(F)cc2)ccc1Cl` [(2E)-2-(3-{[3-chloro-4-({[5-{1-[4-chloro-3-(methyloxy)phenyl]-1-methylethyl}-1-(4-fluorophenyl)-1H-imidazol-2-yl]thio}methyl)-5-fluorophenyl]oxy}propylidene) hydrazinecarboximidamide], the concentration giving a half-maximal response (EC50) at h-TGR5 and on human TGR5 (h-TGR5) was less than 100 nM in each case.
Consider `COc1cc(C(C)(C)c2cnc(S(=O)(=O)CC3CCN(S(C)(=O)=O)CC3)n2-c2ccc(F)cc2)ccc1Cl` [4-({[5-{1-[4-chloro-3-(methyloxy)phenyl]-1-methylethyl}-1-(4-fluorophenyl)-1H-imidazol-2-yl]sulfonyl}methyl)-1-(methylsulfonyl)piperidine], for which the EC50 at h-TGR5 and at human TGR5 (h-TGR5) was 100 to 1000 nM throughout.
`COc1cc(C(C)(C)c2cnc(SCc3c(F)cc(OCCCNC(=N)N)cc3F)n2-c2ccc(F)cc2)ccc1F` [1-(3-{[3,5-difluoro-4-({[5-{1-[4-fluoro-3-(methyloxy)phenyl]-1-methylethyl}-1-(4-fluorophenyl)-1H-imidazol-2-yl]thio}methyl)phenyl]oxy}propyl)guanidine]: the half-maximal effective concentration (EC50) at h-TGR5 and on human TGR5 (h-TGR5) was less than 100 nM throughout.
With `CC(C)(c1ccc(Cl)c(Cl)c1)c1cnc(SCC2CCCN(c3nnn[nH]3)C2)n1-c1ccc(F)cc1` (stereo not shown) [3-[({5-[1-(3,4-dichlorophenyl)-1-methylethyl]-1-(4-fluorophenyl)-1H-imidazol-2-yl}thio)methyl]-1-(1H-tetrazol-5-yl)piperidine], the EC50 at h-TGR5 and at human TGR5 (h-TGR5) was 1000 to 10000 nM throughout.
Take `CC(C)(c1ccc(F)c(C#N)c1)c1cnc(SCc2ccc(S(=O)(=O)NC(=O)NN3CCCC3)cc2Cl)n1-c1ccc(F)cc1` [3-chloro-4-[({5-[1-(3-cyano-4-fluorophenyl)-1-methylethyl]-1-(4-fluorophenyl)-1H-imidazol-2-yl}thio)methyl]-N-[(pyrrolidin-1-ylamino)carbonyl]benzenesulfonamide]: the EC50 at h-TGR5 and at human TGR5 (h-TGR5) was 100 to 1000 nM throughout.
With `COc1cc(-n2c(C(C)(C)c3ccc(Cl)c(Cl)c3)cnc2SCc2ccc(CCCNC(=N)N)c(C(=O)O)c2)ccc1F` [2-(3-{[amino(imino)methyl]amino}propyl)-5-[({5-[1-(3,4-dichlorophenyl)-1-methylethyl]-1-[4-fluoro-3-(methyloxy)phenyl]-1H-imidazol-2-yl}thio)methyl]benzoic acid], the concentration giving a half-maximal response (EC50) at h-TGR5 and on human TGR5 (h-TGR5) was 100 to 1000 nM in each case.
As to `COc1cc(C(C)(C)c2cnc(SCc3c(F)cc(-c4nnn[nH]4)cc3F)n2-c2ccc(F)cc2)ccc1Cl` [5-[4-({[5-{1-[4-chloro-3-(methyloxy)phenyl]-1-methylethyl}-1-(4-fluorophenyl)-1H-imidazol-2-yl]thio}methyl)-3,5-difluorophenyl]-1H-tetrazole], the concentration giving a half-maximal response (EC50) at h-TGR5 and on human TGR5 (h-TGR5) was less than 100 nM throughout.
As to `COc1cc(-n2c(C(C)(C)c3ccc(S(N)(=O)=O)c(Cl)c3)cnc2SCc2c(F)cc(C(=O)NCCS(=O)(=O)O)cc2F)ccc1F` [2-{[(4-{[(5-{1-[4-(aminosulfonyl)-3-chlorophenyl]-1-methylethyl}-1-[4-fluoro-3-(methyloxy)phenyl]-1H-imidazol-2-yl)thio]methyl}-3,5-difluorophenyl)carbonyl]amino}ethanesulfonic acid], the concentration for a half-maximal effect (EC50) on h-TGR5 and on human TGR5 (h-TGR5) was less than 100 nM in each case.
`COc1cc(C(C)(C)c2cnc(SCc3ccc(S(=O)(=O)NC(=O)NN4CCCC4)cc3Cl)n2-c2ccc(F)c(C)c2)ccc1Cl` [3-chloro-4-({[5-{1-[4-chloro-3-(methyloxy)phenyl]-1-methylethyl}-1-(4-fluoro-3-methylphenyl)-1H-imidazol-2-yl]thio}methyl)-N-[(pyrrolidin-1-ylamino)carbonyl]benzenesulfonamide]: the EC50 was 100 to 1000 nM on h-TGR5 and less than 100 nM at human TGR5 (h-TGR5).
Regarding `COc1cc(C(C)(C)c2cnc(SCc3c(F)cc(C(=O)NCS(=O)(=O)O)cc3F)n2-c2ccc(F)cc2)ccc1Cl` [({[4-({[5-{1-[4-chloro-3-(methyloxy)phenyl]-1-methylethyl}-1-(4-fluorophenyl)-1H-imidazol-2-yl]thio}methyl)-3,5-difluorophenyl]carbonyl}amino)methanesulfonic acid], the EC50 on h-TGR5 and on human TGR5 (h-TGR5) was less than 100 nM in each case.
Take `COc1ccc(C(C)(C)c2cnc(SCc3ccc(Cl)c(C(=O)O)c3)n2-c2ccc(F)cc2)cc1Cl` [2-chloro-5-({[5-{1-[3-chloro-4-(methyloxy)phenyl]-1-methylethyl}-1-(4-fluorophenyl)-1H-imidazol-2-yl]thio}methyl)benzoic acid]: the EC50 on h-TGR5 and on human TGR5 (h-TGR5) was 100 to 1000 nM throughout.
Consider `CC(C)(c1ccc(Cl)c(Cl)c1)c1cnc(SCC2CCN(c3nnn[nH]3)C2)n1-c1ccc(F)cc1` (stereo not shown) [5-{3-[({5-[1-(3,4-dichlorophenyl)-1-methylethyl]-1-(4-fluorophenyl)-1H-imidazol-2-yl}thio)methyl]pyrrolidin-1-yl}-1H-tetrazole], for which the EC50 at h-TGR5 fell in the range of 1000 to 10000 nM; on human TGR5 (h-TGR5) it was 100 to 1000 nM.
Take `CC(C)(c1ccc(Cl)c(Cl)c1)c1cnc(SCc2cc(-c3nnn[nH]3)ccc2Cl)n1-c1ccc(F)cc1` [5-{4-chloro-3-[({5-[1-(3,4-dichlorophenyl)-1-methylethyl]-1-(4-fluorophenyl)-1H-imidazol-2-yl}thio)methyl]phenyl}-1H-tetrazole]: the EC50 at h-TGR5 and at human TGR5 (h-TGR5) was 100 to 1000 nM each time.
With `CC(C)(c1ccc(S(N)(=O)=O)c(Cl)c1)c1cnc(SCc2c(F)cc(C(=O)O)cc2F)n1-c1ccc(F)cc1` [4-({[5-{1-[4-(aminosulfonyl)-3-chlorophenyl]-1-methylethyl}-1-(4-fluorophenyl)-1H-imidazol-2-yl]thio}methyl)-3,5-difluorobenzoic acid], the EC50 at h-TGR5 and on human TGR5 (h-TGR5) was less than 100 nM in each case.
For `CC(C)(c1ccc(Cl)c(Cl)c1)c1cnc(SCc2c(F)cc(C(=O)O)cc2Cl)n1-c1ccc(F)cc1` [3-chloro-4-[({5-[1-(3,4-dichlorophenyl)-1-methylethyl]-1-(4-fluorophenyl)-1H-imidazol-2-yl}thio)methyl]-5-fluorobenzoic acid], the EC50 is 100 to 1000 nM at h-TGR5 and less than 100 nM at human TGR5 (h-TGR5).
The matching figures for `COc1cc(-n2c(C(C)(C)c3ccc(Cl)c(Cl)c3)cnc2SCc2c(F)cccc2Cl)ccc1F` [2-{[(2-chloro-6-fluorophenyl)methyl]thio}-5-[1-(3,4-dichlorophenyl)-1-methylethyl]-1-[4-fluoro-3-(methyloxy)phenyl]-1H-imidazole]: less than 100 nM and less than 100 nM.
For `COc1cc(-n2c(C(C)(C)c3ccc(F)c(C#N)c3)cnc2SCc2ccc(S(=O)(=O)NC(=O)NN3CCCC3)cc2Cl)ccc1F` [3-chloro-4-[({5-[1-(3-cyano-4-fluorophenyl)-1-methylethyl]-1-[4-fluoro-3-(methyloxy)phenyl]-1H-imidazol-2-yl}thio)methyl]-N-[(pyrrolidin-1-ylamino)carbonyl]benzenesulfonamide], the EC50 on h-TGR5 and at human TGR5 (h-TGR5) was 100 to 1000 nM in each case.
Turning to `COc1cc(C(C)(C)c2cnc(SCc3ccc(F)cc3Cl)n2-c2ccc(F)cc2)ccc1Cl` [2-{[(2-chloro-4-fluorophenyl)methyl]thio}-5-{1-[4-chloro-3-(methyloxy)phenyl]-1-methylethyl}-1-(4-fluorophenyl)-1H-imidazole], the EC50 at h-TGR5 is 100 to 1000 nM; at human TGR5 (h-TGR5) it was less than 100 nM.
Regarding `CC(C)(c1ccc(F)c(F)c1)c1cnc(SCc2c(F)cc(C(=O)O)cc2F)n1-c1ccc(F)cc1`, the values for the EC50 at h-TGR5 and at human TGR5 (h-TGR5) were less than 100 nM and 100 to 1000 nM, respectively.
Consider `CC(C)(c1ccc(C#N)c(Cl)c1)c1cnc(SCc2ccc(F)cc2Cl)n1-c1ccc(F)cc1` [2-chloro-4-{1-[2-{[(2-chloro-4-fluorophenyl)methyl]thio}-1-(4-fluorophenyl)-1H-imidazol-5-yl]-1-methylethyl}benzonitrile], for which the concentration for a half-maximal effect (EC50) at h-TGR5 and at human TGR5 (h-TGR5) was 100 to 1000 nM throughout.
For `COc1cc(C(C)(C)c2cnc(SCc3c(F)cc(C#CCNC(=N)N)cc3F)n2-c2ccc(F)cc2)ccc1Cl` [1-{3-[4-({[5-{1-[4-chloro-3-(methyloxy)phenyl]-1-methylethyl}-1-(4-fluorophenyl)-1H-imidazol-2-yl]thio}methyl)-3,5-difluorophenyl]prop-2-yn-1-yl}guanidine], the EC50 on h-TGR5 and on human TGR5 (h-TGR5) was less than 100 nM throughout.
For `COc1cc(C(C)(C)c2cnc(SCc3c(F)cc(C(=O)NO)cc3F)n2-c2ccc(F)cc2)ccc1Cl` [4-({[5-{1-[4-chloro-3-(methyloxy)phenyl]-1-methylethyl}-1-(4-fluorophenyl)-1H-imidazol-2-yl]thio}methyl)-3,5-difluoro-N-hydroxybenzamide], the EC50 on h-TGR5 and on human TGR5 (h-TGR5) was less than 100 nM in each case.

Source of the values: patent publication US8785488B2 (Exelixis Patent Company LLC, priority 2009, dated 2014).
